Source: paper PMC9317966, “Structure-function analysis of the AMPK activator SC4 and identification of a potent pan AMPK activator” (Biochemical Journal, 2022)

How the values were obtained:
Assay in all cases: Radiolabel SAMS kinase assay, immobilised GST-AMPK
Format in all cases: biochemical
Conditions in all cases: 1 µM compound
human GST-AMPK α1β2γ3 = biological target: T1, human GST-AMPK α1β2γ3 (Homo sapiens, UniProt O43741+Q13131)
T1 construct: triply transfected with full-length AMPK α1 or α2 (NH2-terminal GST fusion, pDEST27 vector); full-length AMPK α1 or α2 (NH2-terminal GST fusion, pDEST27 vector), β1 or β2 (COOH-terminal FLAG fusion, pcDNA3.1 vector); FLAG (C); made in house; host or cells: HEK293T/17 cells, transient triple transfection
T1 sequence (Q13131 whole entry, the tested form may be a part): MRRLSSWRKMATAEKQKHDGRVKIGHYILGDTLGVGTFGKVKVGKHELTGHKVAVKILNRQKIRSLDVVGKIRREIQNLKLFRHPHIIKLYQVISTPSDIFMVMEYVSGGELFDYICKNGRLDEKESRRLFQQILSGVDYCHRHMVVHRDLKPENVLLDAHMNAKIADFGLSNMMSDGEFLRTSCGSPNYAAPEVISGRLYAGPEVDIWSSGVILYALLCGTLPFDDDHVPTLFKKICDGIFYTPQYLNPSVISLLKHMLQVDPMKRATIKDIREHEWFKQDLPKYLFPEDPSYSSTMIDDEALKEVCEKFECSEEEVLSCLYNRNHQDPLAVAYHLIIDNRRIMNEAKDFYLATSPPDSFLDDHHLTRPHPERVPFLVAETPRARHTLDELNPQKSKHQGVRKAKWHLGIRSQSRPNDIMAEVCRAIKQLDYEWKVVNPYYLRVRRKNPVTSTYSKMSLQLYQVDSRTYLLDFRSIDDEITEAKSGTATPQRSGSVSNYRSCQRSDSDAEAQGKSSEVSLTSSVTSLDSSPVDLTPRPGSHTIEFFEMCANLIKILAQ
T1 sequence (O43741 whole entry, the tested form may be a part): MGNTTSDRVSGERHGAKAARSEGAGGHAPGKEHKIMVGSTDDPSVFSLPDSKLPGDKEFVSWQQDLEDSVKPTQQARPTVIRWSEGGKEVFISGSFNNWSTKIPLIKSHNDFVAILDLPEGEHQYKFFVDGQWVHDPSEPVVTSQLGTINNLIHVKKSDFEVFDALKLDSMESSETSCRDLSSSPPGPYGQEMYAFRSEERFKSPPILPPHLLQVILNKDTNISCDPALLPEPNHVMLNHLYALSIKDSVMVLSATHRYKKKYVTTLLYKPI
T1 sequence (Q9UGI9 whole entry partner, the tested form may be a part): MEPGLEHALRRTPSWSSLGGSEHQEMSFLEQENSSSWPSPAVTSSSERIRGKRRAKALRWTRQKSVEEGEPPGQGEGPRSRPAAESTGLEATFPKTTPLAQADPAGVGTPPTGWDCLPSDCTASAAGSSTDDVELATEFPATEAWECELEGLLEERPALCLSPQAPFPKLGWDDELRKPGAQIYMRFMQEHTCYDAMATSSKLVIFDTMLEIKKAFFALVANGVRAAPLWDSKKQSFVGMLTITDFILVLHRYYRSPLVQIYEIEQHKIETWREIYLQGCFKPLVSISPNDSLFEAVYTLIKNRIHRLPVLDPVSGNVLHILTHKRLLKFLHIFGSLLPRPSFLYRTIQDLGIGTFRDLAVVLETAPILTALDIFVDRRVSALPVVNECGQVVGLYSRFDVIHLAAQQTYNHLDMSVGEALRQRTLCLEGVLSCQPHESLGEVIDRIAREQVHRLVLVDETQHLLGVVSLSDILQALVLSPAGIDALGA
Source text: (§1) We generated a series of compounds to investigate whether modification of the SC4 2-hydroxybiphenyl LHS fragment affects isoform selectivity, some of which (MSG008-MSG011) are presented in Table 1. We also synthesised compound MSG012 (example I-3-54 [32]), which was reported to activate α2β2γ1 with ∼100-fold greater potency compared with α1β1γ1. MSG012 differs from SC4 by substitution of the 2-hydroxyphenyl LHS fragment with 3-cyclohexen-4-yl-1-carboxylic acid, and 2-methylbenzoic acid RHS fragment with 1-hydroxy-N,N-dimethylcyclohexan-4-yl-1-carboxamide. Our initial screen involved measuring the activity of recombinant human GST-AMPK complexes expressed in HEK293T/17 cells and immobilised on glutathione-Sepharose (Supplementary Figure S1). Enzyme activity was measured by radiolabelling the synthetic SAMS peptide substrate in the absence or presence of 1 µM compound. Consistent with our previous characterisation, SC4 activated α1β1γ1, α2β1γ1 and α2β2γ1 >2.3-fold, and weakly activated α1β2γ1 1.3-fold (Figure 1A). […] The γ isoform had little influence on AMPK activation by MSG011 as most γ2 and γ3 complexes were activated >2.2-fold at 1 µM, with α1β2γ2 being the only exception (1.6-fold activation). […] Accordingly, MSG010, MSG011 and MSG012 can be classified as pan AMPK activators.
(§2) Adherent HEK293T/17 cells at ∼50% confluency were triply transfected with full-length AMPK α1 or α2 (NH2-terminal GST fusion, pDEST27 vector), β1 or β2 (COOH-terminal FLAG fusion, pcDNA3.1 vector), and γ1, γ2 or γ3 (NH2-terminal HA fusion, pMT2 vector) in the presence of FuGENE HD transfection reagent (Promega) as per the manufacturers protocol. Cells were harvested 48 hours post-transfection by first gently washing in ice cold phosphate buffered saline (PBS; Sigma–Aldrich), then scraping in ice cold lysis buffer (50 mM TRIS pH 7.5, 150 mM NaCl, 10% (v/v) glycerol, 50 mM NaF, 5 mM sodium pyrophosphate, 1% (v/v) Triton X-100, cOmplete protease inhibitor cocktail). Lysates were clarified by centrifugation (16 000g, 3 min, 4°C), flash frozen in liquid N2 and stored at −80°C until analysis. For radioactive kinase assays, AMPK was immobilised on glutathione Sepharose 4B resin (GE Healthcare) by incubation with lysates for 1.5 h at 4°C. Following centrifugation (1000g, 3 min, 4°C), the resin was washed twice in purification buffer (50 mM HEPES pH 7.4, 150 mM NaCl, 10% (v/v) glycerol, 0.02% (v/v) Tween-20), once in 50 mM HEPES pH 7.4 with 0.02% (v/v) Tween-20, then resuspended to a 50% slurry with 50 mM HEPES pH 7.4 and 10 µl added to the activity assays. For in solution kinase assays, α1β1γ1 AMPK was eluted from glutathione-Sepharose by incubating with purification buffer supplemented with 40 mM reduced glutathione (Sigma–Aldrich).
(§3) AMPK activity was determined by phosphorylation of the SAMS peptide (Purar Chemicals, sequence: NH2-HMRSAMSGLHLVKRR-COOH) in a 25 µl reaction volume containing 100 µM SAMS peptide, 5 mM MgCl2, 200 µM ATP, [γ-^32P]-ATP (PerkinElmer) and assay buffer (50 mM HEPES pH 7.4, 1 mM DTT and 0.02% (v/v) Tween-20) and purified AMPK. Phosphotransferase activity was conducted at 30°C for 10 min and reactions were quenched by spotting 15 µl onto phosphocellulose ion-exchange chromatography paper (made in-house), followed by repeated washes in 1% H3PO4 (Merck Millipore). Ultima Gold liquid scintillation fluid (5 ml; PerkinElmer) was added to vials containing dried phosphocellulose papers, and the level of ^32P-transfer to the SAMS peptide was determined using a Tri-Carb 2900TR liquid scintillation counter (PerkinElmer).

human GST-AMPK α2β2γ2 = biological target: T2, human GST-AMPK α2β2γ2 (Homo sapiens, UniProt O43741+P54646)
T2 construct: triply transfected with full-length AMPK α1 or α2 (NH2-terminal GST fusion, pDEST27 vector); full-length AMPK α1 or α2 (NH2-terminal GST fusion, pDEST27 vector), β1 or β2 (COOH-terminal FLAG fusion, pcDNA3.1 vector); FLAG (C); made in house; host or cells: HEK293T/17 cells, transient triple transfection
T2 sequence (P54646 whole entry, the tested form may be a part): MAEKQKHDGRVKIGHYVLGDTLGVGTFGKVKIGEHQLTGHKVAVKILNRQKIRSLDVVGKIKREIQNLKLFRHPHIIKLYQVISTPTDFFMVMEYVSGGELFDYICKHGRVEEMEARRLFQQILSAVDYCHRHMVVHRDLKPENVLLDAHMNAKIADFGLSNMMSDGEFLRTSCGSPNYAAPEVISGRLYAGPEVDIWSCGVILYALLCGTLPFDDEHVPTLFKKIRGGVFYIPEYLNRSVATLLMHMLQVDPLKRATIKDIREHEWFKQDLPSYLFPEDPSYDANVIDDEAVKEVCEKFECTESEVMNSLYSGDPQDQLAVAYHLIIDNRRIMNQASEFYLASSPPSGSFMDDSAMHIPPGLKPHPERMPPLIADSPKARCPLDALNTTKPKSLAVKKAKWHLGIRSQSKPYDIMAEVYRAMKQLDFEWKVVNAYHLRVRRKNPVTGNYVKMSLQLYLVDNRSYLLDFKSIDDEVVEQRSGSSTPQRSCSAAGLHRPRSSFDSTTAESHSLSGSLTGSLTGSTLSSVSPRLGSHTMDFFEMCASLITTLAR
T2 sequence (O43741 whole entry, the tested form may be a part): as the sequence (O43741 whole entry, the tested form may be a part) above
T2 sequence (Q9UGJ0 whole entry partner, the tested form may be a part): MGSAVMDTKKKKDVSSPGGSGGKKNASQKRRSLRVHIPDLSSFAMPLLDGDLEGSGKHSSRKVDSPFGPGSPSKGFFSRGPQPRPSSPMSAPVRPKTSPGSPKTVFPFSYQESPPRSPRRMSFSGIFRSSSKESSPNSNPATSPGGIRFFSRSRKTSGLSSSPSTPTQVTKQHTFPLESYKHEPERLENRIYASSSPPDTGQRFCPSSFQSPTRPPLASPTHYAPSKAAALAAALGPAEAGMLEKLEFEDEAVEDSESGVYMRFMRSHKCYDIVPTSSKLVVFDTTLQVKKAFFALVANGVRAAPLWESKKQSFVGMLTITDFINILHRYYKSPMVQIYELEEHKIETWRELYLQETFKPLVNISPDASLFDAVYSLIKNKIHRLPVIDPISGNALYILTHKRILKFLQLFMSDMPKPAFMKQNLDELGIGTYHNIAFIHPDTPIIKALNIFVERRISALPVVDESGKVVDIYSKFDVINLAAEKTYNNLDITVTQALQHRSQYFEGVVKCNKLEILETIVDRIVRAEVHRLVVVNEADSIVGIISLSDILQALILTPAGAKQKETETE
Source text: as §1, §2, §3

human GST-AMPK α1β1γ2 = biological target: T3, human GST-AMPK α1β1γ2 (Homo sapiens, UniProt Q13131+Q9Y478)
T3 construct: triply transfected with full-length AMPK α1 or α2 (NH2-terminal GST fusion, pDEST27 vector); full-length AMPK α1 or α2 (NH2-terminal GST fusion, pDEST27 vector), β1 or β2 (COOH-terminal FLAG fusion, pcDNA3.1 vector); FLAG (C); made in house; host or cells: HEK293T/17 cells, transient triple transfection
T3 sequence (Q13131 whole entry, the tested form may be a part): as the sequence (Q13131 whole entry, the tested form may be a part) above
T3 sequence (Q9Y478 whole entry, the tested form may be a part): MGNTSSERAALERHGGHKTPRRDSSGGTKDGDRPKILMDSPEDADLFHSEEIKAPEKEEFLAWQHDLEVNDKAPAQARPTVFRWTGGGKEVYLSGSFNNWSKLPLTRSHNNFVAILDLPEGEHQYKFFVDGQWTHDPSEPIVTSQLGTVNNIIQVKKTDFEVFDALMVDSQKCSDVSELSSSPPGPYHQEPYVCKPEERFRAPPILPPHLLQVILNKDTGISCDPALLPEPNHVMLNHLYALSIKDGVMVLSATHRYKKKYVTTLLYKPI
T3 sequence (Q9UGJ0 whole entry partner, the tested form may be a part): as the sequence (Q9UGJ0 whole entry partner, the tested form may be a part) above
Source text: as §1, §2, §3

human GST-AMPK α1β1γ3 = biological target: T4, human GST-AMPK α1β1γ3 (Homo sapiens, UniProt Q13131+Q9Y478)
T4 construct: triply transfected with full-length AMPK α1 or α2 (NH2-terminal GST fusion, pDEST27 vector); full-length AMPK α1 or α2 (NH2-terminal GST fusion, pDEST27 vector), β1 or β2 (COOH-terminal FLAG fusion, pcDNA3.1 vector); FLAG (C); made in house; host or cells: HEK293T/17 cells, transient triple transfection
T4 sequence (Q13131 whole entry, the tested form may be a part): as the sequence (Q13131 whole entry, the tested form may be a part) above
T4 sequence (Q9Y478 whole entry, the tested form may be a part): as the sequence (Q9Y478 whole entry, the tested form may be a part) above
T4 sequence (Q9UGI9 whole entry partner, the tested form may be a part): as the sequence (Q9UGI9 whole entry partner, the tested form may be a part) above
Source text: as §1, §2, §3

human GST-AMPK α1β2γ2 = biological target: T5, human GST-AMPK α1β2γ2 (Homo sapiens, UniProt O43741+Q13131)
T5 construct: triply transfected with full-length AMPK α1 or α2 (NH2-terminal GST fusion, pDEST27 vector); full-length AMPK α1 or α2 (NH2-terminal GST fusion, pDEST27 vector), β1 or β2 (COOH-terminal FLAG fusion, pcDNA3.1 vector); FLAG (C); made in house; host or cells: HEK293T/17 cells, transient triple transfection
T5 sequence (Q13131 whole entry, the tested form may be a part): as the sequence (Q13131 whole entry, the tested form may be a part) above
T5 sequence (O43741 whole entry, the tested form may be a part): as the sequence (O43741 whole entry, the tested form may be a part) above
T5 sequence (Q9UGJ0 whole entry partner, the tested form may be a part): as the sequence (Q9UGJ0 whole entry partner, the tested form may be a part) above
Source text: as §1, §2, §3

human GST-AMPK α2β2γ3 = biological target: T6, human GST-AMPK α2β2γ3 (Homo sapiens, UniProt O43741+P54646)
T6 construct: triply transfected with full-length AMPK α1 or α2 (NH2-terminal GST fusion, pDEST27 vector); full-length AMPK α1 or α2 (NH2-terminal GST fusion, pDEST27 vector), β1 or β2 (COOH-terminal FLAG fusion, pcDNA3.1 vector); FLAG (C); made in house; host or cells: HEK293T/17 cells, transient triple transfection
T6 sequence (P54646 whole entry, the tested form may be a part): as the sequence (P54646 whole entry, the tested form may be a part) above
T6 sequence (O43741 whole entry, the tested form may be a part): as the sequence (O43741 whole entry, the tested form may be a part) above
T6 sequence (Q9UGI9 whole entry partner, the tested form may be a part): as the sequence (Q9UGI9 whole entry partner, the tested form may be a part) above
Source text: as §1, §2, §3

human GST-AMPK α2β1γ3 = biological target: T7, human GST-AMPK α2β1γ3 (Homo sapiens, UniProt P54646+Q9Y478)
T7 construct: triply transfected with full-length AMPK α1 or α2 (NH2-terminal GST fusion, pDEST27 vector); full-length AMPK α1 or α2 (NH2-terminal GST fusion, pDEST27 vector), β1 or β2 (COOH-terminal FLAG fusion, pcDNA3.1 vector); FLAG (C); made in house; host or cells: HEK293T/17 cells, transient triple transfection
T7 sequence (P54646 whole entry, the tested form may be a part): as the sequence (P54646 whole entry, the tested form may be a part) above
T7 sequence (Q9Y478 whole entry, the tested form may be a part): as the sequence (Q9Y478 whole entry, the tested form may be a part) above
T7 sequence (Q9UGI9 whole entry partner, the tested form may be a part): as the sequence (Q9UGI9 whole entry partner, the tested form may be a part) above
Source text: as §1, §2, §3

human GST-AMPK α2β1γ2 = biological target: T8, human GST-AMPK α2β1γ2 (Homo sapiens, UniProt P54646+Q9Y478)
T8 construct: triply transfected with full-length AMPK α1 or α2 (NH2-terminal GST fusion, pDEST27 vector); full-length AMPK α1 or α2 (NH2-terminal GST fusion, pDEST27 vector), β1 or β2 (COOH-terminal FLAG fusion, pcDNA3.1 vector); FLAG (C); made in house; host or cells: HEK293T/17 cells, transient triple transfection
T8 sequence (P54646 whole entry, the tested form may be a part): as the sequence (P54646 whole entry, the tested form may be a part) above
T8 sequence (Q9Y478 whole entry, the tested form may be a part): as the sequence (Q9Y478 whole entry, the tested form may be a part) above
T8 sequence (Q9UGJ0 whole entry partner, the tested form may be a part): as the sequence (Q9UGJ0 whole entry partner, the tested form may be a part) above
Source text: as §1, §2, §3

fold AMPK activation relative to vehicle (human GST-AMPK α1β2γ3): > 2.2 fold
fold AMPK activation relative to vehicle (human GST-AMPK α2β2γ2): > 2.2 fold
fold AMPK activation relative to vehicle (human GST-AMPK α1β1γ2): > 2.2 fold
fold AMPK activation relative to vehicle (human GST-AMPK α1β1γ3): > 2.2 fold
fold AMPK activation relative to vehicle (human GST-AMPK α1β2γ2): 1.6 fold
fold AMPK activation relative to vehicle (human GST-AMPK α2β2γ3): > 2.2 fold
fold AMPK activation relative to vehicle (human GST-AMPK α2β1γ3): > 2.2 fold
fold AMPK activation relative to vehicle (human GST-AMPK α2β1γ2): > 2.2 fold
Compound: CC(=O)NC1CC=C(c2ccc(-c3nc4nc(Oc5ccc(C)c(C(=O)O)c5)[nH]c4cc3Cl)cc2)CC1 (centres unmarked) [MSG011, 5-((5-(4′-Acetamido-2′,3′,4′,5′-tetrahydro-[1,1′-biphenyl]-4-yl)-6-chloro-1H-imidazo[4,5-b]pyridin-2-yl)oxy)-2-methylbenzoic acid]
